According to patent US20230265116A1, “DEGRADATION OF (EGFR) BY CONJUGATION OF EGFR INHIBITORS WITH E3 LIGASE LIGAND AND METHODS OF USE” (BEIGENE, LTD., priority 2020, published 2023):
Where two headings read alike, the source gives them in different places.

What was measured:
[1] = system: EGFR Del19/T790M/C797S (H1975-clone #28); experiment: EGFR degradation HTRF assay, H1975-clone #28 DTC cells; format: cell-based
Outline: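 Cells were dosed on day 2 with an 8-point, 5-fold dilution series starting at 10 uM final and incubated 16h at 37° C. After lysis for 1 hour, HTRF antibodies were added overnight at room temperature and the plate was read at 665/620 nm. Degradation was normalised to DMSO wells and fitted for DC50 and Dmax.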

[2] = target: T1, EGFR L858R/T790M/C797S (BaF3-LTC cells) (Homo sapiens, UniProt P00533, C797S/L858R/T790M); experiment: EGFR degradation HTRF assay, BaF3-LTC cells; format: cell-based
T1 construct: expressed in transfected cells; host or cells: BaF3
Outline: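 EGFR remaining after a 16 h, 37 °C exposure (8 doses, 5-fold steps from 10 uM final, 0.2% DMSO) was quantified by HTRF antibodies in cell lysate. Percent inhibition relative to DMSO control was fitted by four-parameter logistic to give DC50; Dmax denotes maximal degradation.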

[3] = H1975 # 28 DTC cells; maximum percentage of inhibition (degradation)
[4] = read-out: DC50(nM) H1975 # 28 DTC; H1975 # 28 DTC cells; EGFR degradation, IC50 (DC50) from curve fit
[5] = read-out: DC50(nM) BaF3-LTC; BaF3-LTC cells; EGFR degradation, IC50 (DC50) from curve fit
[6] = read-out: Dmax (%) BaF3-LTC, BaF3-LTC cells; maximum percentage of inhibition (degradation)
[7] = H1975 # 28 DTC cells; EGFR degradation, IC50 (DC50) from curve fit; read-out: DC50(nM) H1975 # 28 DTC
[8] = BaF3-LTC cells; EGFR degradation, IC50 (DC50) from curve fit; read-out: DC50(nM) BaF3-LTC
[9] = BaF3-LTC cells; maximum percentage of inhibition (degradation); read-out: Dmax (%) BaF3-LTC

T1 sequence (P00533 25-1210 T790M/C797S/L858R): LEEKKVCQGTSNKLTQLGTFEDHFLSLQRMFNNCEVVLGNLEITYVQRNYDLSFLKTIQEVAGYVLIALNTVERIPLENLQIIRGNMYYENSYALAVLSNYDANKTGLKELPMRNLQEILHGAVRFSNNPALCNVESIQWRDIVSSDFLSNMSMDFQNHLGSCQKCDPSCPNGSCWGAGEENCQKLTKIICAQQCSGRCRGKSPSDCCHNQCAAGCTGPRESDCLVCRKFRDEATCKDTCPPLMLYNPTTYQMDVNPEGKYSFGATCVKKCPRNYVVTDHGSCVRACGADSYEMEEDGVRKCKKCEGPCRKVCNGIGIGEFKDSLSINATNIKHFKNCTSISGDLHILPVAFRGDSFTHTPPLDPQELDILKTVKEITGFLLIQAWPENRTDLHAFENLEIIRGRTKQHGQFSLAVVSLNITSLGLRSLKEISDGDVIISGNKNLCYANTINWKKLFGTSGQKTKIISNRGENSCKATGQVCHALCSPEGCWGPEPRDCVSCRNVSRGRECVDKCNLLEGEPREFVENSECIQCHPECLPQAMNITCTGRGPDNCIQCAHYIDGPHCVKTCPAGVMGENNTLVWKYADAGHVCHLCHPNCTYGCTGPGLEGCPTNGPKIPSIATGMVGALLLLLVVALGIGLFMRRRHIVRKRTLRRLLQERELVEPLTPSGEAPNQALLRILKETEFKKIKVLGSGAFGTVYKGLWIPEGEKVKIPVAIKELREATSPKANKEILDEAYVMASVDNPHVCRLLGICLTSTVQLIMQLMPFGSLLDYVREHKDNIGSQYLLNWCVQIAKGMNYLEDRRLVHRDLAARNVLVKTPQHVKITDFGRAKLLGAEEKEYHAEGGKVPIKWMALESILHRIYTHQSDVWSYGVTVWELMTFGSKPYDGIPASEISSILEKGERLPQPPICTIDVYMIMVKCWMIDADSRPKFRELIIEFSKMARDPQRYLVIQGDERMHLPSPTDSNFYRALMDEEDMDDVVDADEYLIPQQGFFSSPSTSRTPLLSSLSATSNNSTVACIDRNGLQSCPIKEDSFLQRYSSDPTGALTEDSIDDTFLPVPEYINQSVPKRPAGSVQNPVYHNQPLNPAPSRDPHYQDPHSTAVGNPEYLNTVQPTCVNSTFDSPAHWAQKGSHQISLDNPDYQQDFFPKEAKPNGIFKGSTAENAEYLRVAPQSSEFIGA

Structure (SMILES)	DC50 [1, 7]	DC50 [2, 8]	Dmax [2, 9]	Dmax (%) H1975 # 28 DTC [1, 3]	DC50 [1, 4]	DC50 [2, 5]	Dmax [2, 6]	Dmax (%) BaF3-LTC ([2]; BaF3-LTC cells; maximum percentage of inhibition (degradation))
CCOc1cc(N2CCC(N3CCN(CCCc4cccc5c4oc(=O)n5C4CCC(=O)NC4=O)CC3)CC2)c(CC)cc1Nc1ncc(Br)c(Nc2ccc3nc(CC)ncc3c2P(C)(C)=O)n1 (centres unmarked) [Example 615, 3-(7-(3-(4-(1-(4-((5-bromo-4-((5-(dimethylphosphoryl)-2-ethylquinazolin-6-yl)amino)pyrimidin-2-yl)amino)-5-ethoxy-2-ethylphenyl)piperidin-4-yl)piperazin-1-yl)propyl)-2-oxobenzo[d]oxazol-3(2H)-yl)piperidine-2,6-dione]	–	–	–	72.36%	0.921 nM	7.91 nM	91%	–
CCOc1cc(N2CCC(N3CCN(CCN(C)c4cccc5c4oc(=O)n5C4CCC(=O)NC4=O)CC3)CC2)c(CC)cc1Nc1ncc(Br)c(Nc2cc(F)c3nc(CC)ccc3c2P(C)(C)=O)n1 (centres unmarked) [Example 604, 3-(7-((2-(4-(1-(4-((5-bromo-4-((5-(dimethylphosphoryl)-2-ethyl-8-fluoroquinolin-6-yl)amino)pyrimidin-2-yl)amino)-5-ethoxy-2-ethylphenyl)piperidin-4-yl)piperazin-1-yl)ethyl)(methyl)amino)-2-oxobenzo[d]oxazol-3(2H)-yl)piperidine-2,6-dione]	0.764 nM	18.5 nM	86.1%	69.1%	–	–	–	–
CCOc1cc(N2CCC(N3CCN(CCc4ccc5c(c4)oc(=O)n5C4CCC(=O)NC4=O)CC3)CC2)c(C)cc1Nc1ncc(Br)c(Nc2ccc3nc(CC)ccc3c2P(C)(C)=O)n1 (centres unmarked) [Example 552, 3-(6-(2-(4-(1-(4-((5-bromo-4-((5-(dimethylphosphoryl)-2-ethylquinolin-6-yl)amino)pyrimidin-2-yl)amino)-5-ethoxy-2-methylphenyl)piperidin-4-yl)piperazin-1-yl)ethyl)-2-oxobenzo[d]oxazol-3 (2H)-yl)piperidine-2,6-dione]	0.367 nM	4.35 nM	85.7%	71.85%	–	–	–	–
CCOc1cc(N2CCC(N3CCN(CCC4CCN(c5cc(F)cc6c5oc(=O)n6C5CCC(=O)NC5=O)CC4)CC3)CC2)c(CC)cc1Nc1ncc(Br)c(Nc2ccc3nc(CC)ccc3c2P(C)(C)=O)n1 (centres unmarked) [Example 556, 3-(7-(4-(2-(4-(1-(4-((5-bromo-4-((5-(dimethylphosphoryl)-2-ethylquinolin-6-yl)amino)pyrimidin-2-yl)amino)-5-ethoxy-2-ethylphenyl)piperidin-4-yl)piperazin-1-yl)ethyl)piperidin-1-yl)-5-fluoro-2-oxobenzo[d]oxazol-3(2H)-yl)piperidine-2,6-dione]	4.03 nM	14.8 nM	92.2%	98.64%	–	–	–	–
CCc1ccc2c(P(C)(C)=O)c(Nc3nc(Nc4cc(CC)c(N5CCC(N6CCN(C(=O)C7CN(c8cc(F)cc9c8oc(=O)n9C8CCC(=O)NC8=O)C7)CC6)CC5)cc4OC)ncc3Br)ccc2n1 (centres unmarked) [Example 447, 3-(7-(3-(4-(1-(4-((5-bromo-4-((5-(dimethylphosphoryl)-2-ethylquinolin-6-yl)amino)pyrimidin-2-yl)amino)-2-ethyl-5-methoxyphenyl)piperidin-4-yl)piperazine-1-carbonyl)azetidin-1-yl)-5-fluoro-2-oxobenzo[d]oxazol-3(2H)-yl)piperidine-2,6-dione]	–	–	–	77.96%	0.526 nM	2.27 nM	83.2%	–
CCOc1cc(N2CCC(N3CCN(CCCc4cc(F)cc5c4oc(=O)n5C4CCC(=O)NC4=O)CC3)CC2)c(CC)cc1Nc1ncc(Br)c(Nc2ccc3nc(CC)ncc3c2P(C)(C)=O)n1 (centres unmarked) [Example 617, 3-(7-(3-(4-(1-(4-((5-bromo-4-((5-(dimethylphosphoryl)-2-ethylquinazolin-6-yl)amino)pyrimidin-2-yl)amino)-5-ethoxy-2-ethylphenyl)piperidin-4-yl)piperazin-1-yl)propyl)-5-fluoro-2-oxobenzo[d]oxazol-3(2H)-yl)piperidine-2,6-dione]	–	–	–	74.31%	1.15 nM	5.77 nM	–	91.31%
CCc1cc(Nc2ncc(Br)c(Nc3ccc4nc(C)ccc4c3P(C)(C)=O)n2)c(OC2CC2)cc1N1CCC(N2CCN(C(=O)[C@@H]3CCN(c4cc(F)c([C@H]5CCC(=O)NC5=O)c(F)c4)C3)CC2)CC1 [Example 544, (R)-3-(4-((R)-3-(4-(1-(4-((5-bromo-4-((5-(dimethylphosphoryl)-2-methylquinolin-6-yl)amino)pyrimidin-2-yl)amino)-5-cyclopropoxy-2-ethylphenyl)piperidin-4-yl)piperazine-1-carbonyl)pyrrolidin-1-yl)-2,6-difluorophenyl)piperidine-2,6-dione]	1.48 nM	12.5 nM	90.3%	81.13%	–	–	–	–
CCOc1cc(N2CCC(N3CCN(CC4CN(c5cccc6c5n(C)c(=O)n6C5CCC(=O)NC5=O)C4)CC3)CC2)c(CC)cc1Nc1ncc(Br)c(Nc2ccc3c(=O)n(CC)ncc3c2P(C)(C)=O)n1 (centres unmarked) [Example 622, 3-(4-(3-((4-(1-(4-((5-bromo-4-((5-(dimethylphosphoryl)-2-ethyl-1-oxo-1,2-dihydrophthalazin-6-yl)amino)pyrimidin-2-yl)amino)-5-ethoxy-2-ethylphenyl)piperidin-4-yl)piperazin-1-yl)methyl)azetidin-1-yl)-3-methyl-2-oxo-2,3-dihydro-1H-benzo[d]imidazol-1-yl)piperidine-2,6-dione]	4.78 nM	37.3 nM	94%	75.46%	–	–	–	–

Continued, in another order:

DC50 [1, 7]	DC50 [2, 8]	Dmax [2, 9]	Structure (SMILES)	Dmax (%) H1975 # 28 DTC [1, 3]	DC50 [1, 4]	DC50 [2, 5]	Dmax [2, 6]	Dmax (%) BaF3-LTC ([2]; BaF3-LTC cells; maximum percentage of inhibition (degradation))
0.677 nM	5.79 nM	93.3%	CCc1cc(Nc2ncc(Br)c(Nc3ccc4c(=O)n(CC)ncc4c3P(C)(C)=O)n2)c(OC)cc1N1CCC(N2CCN(C(=O)[C@@H]3CCN(c4cc(F)c([C@H]5CCC(=O)NC5=O)c(F)c4)C3)CC2)CC1 [Example 673, (R)-3-(4-((R)-3-(4-(1-(4-((5-bromo-4-((5-(dimethylphosphoryl)-2-ethyl-1-oxo-1,2-dihydrophthalazin-6-yl)amino)pyrimidin-2-yl)amino)-2-ethyl-5-methoxyphenyl)piperidin-4-yl)piperazine-1-carbonyl)pyrrolidin-1-yl)-2,6-difluorophenyl)piperidine-2,6-dione]	85.2%	–	–	–	–
7.25 nM	89.9 nM	–	CCOc1cc(N2CCC(N3CCN(CCc4cc(F)c([C@H]5CCC(=O)NC5=O)c(F)c4)CC3)CC2)c(CC)cc1Nc1ncc(C)c(Nc2cc(F)c3nc(CC)ccc3c2P(C)(C)=O)n1 [Example 733, (R)-3-(4-(2-(4-(1-(4-((4-((5-(dimethylphosphoryl)-2-ethyl-8-fluoroquinolin-6-yl)amino)-5-methylpyrimidin-2-yl)amino)-5-ethoxy-2-ethylphenyl)piperidin-4-yl)piperazin-1-yl)ethyl)-2,6-difluorophenyl)piperidine-2,6-dione]	84.52%	–	–	–	–
0.9 nM	7.79 nM	92.2%	CCc1ccc2c(P(C)(C)=O)c(Nc3nc(Nc4cc(CC)c(N5CCC(N6CCN(CCCOc7cc(F)c([C@H]8CCC(=O)NC8=O)c(F)c7)CC6)CC5)cc4OC)ncc3Br)ccc2n1 [Example 734, (R)-3-(4-(3-(4-(1-(4-((5-bromo-4-((5-(dimethylphosphoryl)-2-ethylquinolin-6-yl)amino)pyrimidin-2-yl)amino)-2-ethyl-5-methoxyphenyl)piperidin-4-yl)piperazin-1-yl)propoxy)-2,6-difluorophenyl)piperidine-2,6-dione]	76.3%	–	–	–	–
2.25 nM	40.3 nM	–	CCc1ccc2c(P(C)(C)=O)c(Nc3nc(Nc4cc(CC)c(N5CCC(C6CCN(CCc7cc(F)c([C@H]8CCC(=O)NC8=O)c(F)c7)CC6)CC5)cc4OC)ncc3Br)ccc2n1 [Example 745, (R)-3-(4-(2-(1′-(4-((5-bromo-4-((5-(dimethylphosphoryl)-2-ethylquinolin-6-yl)amino)pyrimidin-2-yl)amino)-2-ethyl-5-methoxyphenyl)-[4,4′-bipiperidin]-1-yl)ethyl)-2,6-difluorophenyl)piperidine-2,6-dione]	75.21%	–	–	–	–
0.647 nM	4.53 nM	92.3%	CCc1cc(Nc2ncc(Br)c(Nc3ccc4nc(CO)ccc4c3P(C)(C)=O)n2)c(OC)cc1N1CCC(N2CCN(C(=O)[C@@H]3CCN(c4cc(F)c(C5CCC(=O)NC5=O)c(F)c4)C3)CC2)CC1 (stereo partly drawn) [Example 696, 3-(4-((R)-3-(4-(1-(4-((5-bromo-4-((5-(dimethylphosphoryl)-2-(hydroxymethyl)quinolin-6-yl)amino)pyrimidin-2-yl)amino)-2-ethyl-5-methoxyphenyl)piperidin-4-yl)piperazine-1-carbonyl)pyrrolidin-1-yl)-2,6-difluorophenyl)piperidine-2,6-dione]	75.49%	–	–	–	–
